Laboratory results from patent US6951881B2, “(1-substituted-indol-3-yl) alkylidenehydrazinecarboximidamide derivatives as 5-hydroxytryptamine-6 ligands” (Wyeth, priority 2002, dated 2005).
Counter-ions that a name gives are not always drawn.

Target: T1, human cloned 5-HT6 receptors (Homo sapiens, UniProt P50406)
T1 construct: expressed in transfected cells; host or cells: HeLa cells
Assay type: binding
Conditions: for inhibition at 0.1 µM: test compound dose 100 nM, read-out: % Inhibition; for inhibition at 0.1 µM / inhibition at 1 µM: displacement of [3H]-LSD; for Ki: [3H]-LSD 3.0 nM, Hela cell membranes, read-out: 5-HT6 Binding Ki; for inhibition at 1 µM: test compound dose 1000 nM

T1 sequence (P50406 whole entry): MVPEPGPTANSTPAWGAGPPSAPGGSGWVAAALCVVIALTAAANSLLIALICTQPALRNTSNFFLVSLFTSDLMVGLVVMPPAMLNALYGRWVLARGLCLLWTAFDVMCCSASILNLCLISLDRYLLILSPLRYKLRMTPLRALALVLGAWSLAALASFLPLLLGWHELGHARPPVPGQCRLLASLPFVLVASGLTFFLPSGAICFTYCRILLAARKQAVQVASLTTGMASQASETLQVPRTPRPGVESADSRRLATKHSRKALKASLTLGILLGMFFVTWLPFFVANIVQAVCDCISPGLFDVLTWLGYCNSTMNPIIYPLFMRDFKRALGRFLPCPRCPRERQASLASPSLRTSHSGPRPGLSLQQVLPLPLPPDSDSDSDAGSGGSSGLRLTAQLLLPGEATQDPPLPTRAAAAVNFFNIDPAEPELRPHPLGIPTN

SMILES | inhibition at 0.1 µM | Ki | inhibition at 1 µM
N=C(NCc1ccccc1)NN=Cc1c(-c2ccc(Cl)cc2)[nH]c2ccccc12 [Example 117, 2-{[2-(4-chlorophenyl)-1H-indol-3-yl]methylidene}-N-benzyl-1hydrazinecarboximidamide] | – | – | 69%
N=C(N)N/N=C/c1c(-c2ccccc2)[nH]c2ccccc12 [Example 42, 2-(2-Phenyl-1H-indol-3-ylmethylene)hydrazinecarboximidamide] | – | – | 82.1%
CC(=NNC(=N)N)c1c(-c2ccc(Cl)cc2)n(Cc2csc(C)n2)c2ccccc12 [Example 100, 2-(1-{2-(4-chlorophenyl)-1-[(2-methyl-1,3-thiazol-4-yl)methyl]-1H-indol-3-yl}ethylidene)-1hydrazinecarboximidamide] | – | – | 31.5%

Next, values leading:

inhibition at 0.1 µM | Ki | inhibition at 1 µM | SMILES
27.6% | – | – | Cc1ccc2[nH]c3c(c2c1)C(=NNC(=N)N)CC(c1ccccc1)C3 (centres unmarked) [Example 164, 2-(6-methyl-2-phenyl-1,2,3,9-tetrahydro-4H-carbazol-4-ylidene)hydrazinecarboximidamide]
– | 3 nM | 99.4% | COc1ccc(S(=O)(=O)Nc2ccc3c(c2)c(C(C)=NNC(=N)N)cn3C)cc1OC [Example 23]
– | 1 nM | – | C/C(=N\NC(=N)N)c1c[nH]c2ccc(NS(=O)(=O)c3ccccc3)cc12 [Example 7, (Z)-2-{1-[5-[(Phenylsulfonyl)amino]-1H-indol-3yl]ethylidene}hydrazinecarboximidamide Hydrochloride]
27.3% | – | – | CC(C)c1ccc2[nH]c3c(c2c1)C(=NNC(=N)N)CC(C)(C)C3 [Example 166, 2-(6-isopropyl-2,2-dimethyl-1,2,3,9-tetrahydro-4H-carbazol-4-ylidene)hydrazinecarboximidamide]
